Experiments:
[1] = AUC (0 to infinity) in Sprague-Dawley rat at 10 mg/kg, po; type: ADME, organism-based; set-up: dose 10 mg/kg, time infinity, route oral; details: in vivo
[2] = target: Proto-oncogene tyrosine-protein kinase Src (Homo sapiens) (UniProt P12931); assay: Inhibition of human SRC at 0.1 uM relative to control
[3] = target: Tyrosine-protein kinase Fgr (Homo sapiens) (UniProt P09769); assay: Inhibition of human FGR at 0.1 uM relative to control
[4] = target: Tyrosine-protein kinase Lyn (Homo sapiens) (UniProt P07948); assay: Inhibition of human LYNB at 0.1 uM relative to control
[5] = target: Aurora kinase B (Homo sapiens) (UniProt Q96GD4); assay: Inhibition of human AURKB at 0.1 uM relative to control
[6] = target: Vascular endothelial growth factor receptor 3 (Homo sapiens) (UniProt P35916); assay: Inhibition of human FLT4 at 0.1 uM relative to control
[7] = target: Tyrosine-protein kinase ABL1 (Homo sapiens) (UniProt P00519); assay: Inhibition of human ABL1 at 0.1 uM relative to control
[8] = test system: Platelet-derived growth factor receptor alpha (Homo sapiens), P16234 [V561D]; assay: Inhibition of human PDGFRA V561D mutant at 0.1 uM relative to control
[9] = test system: Platelet-derived growth factor receptor alpha (Homo sapiens), P16234 [T674I]; assay: Inhibition of human PDGFRA T674I mutant at 0.1 uM relative to control
[10] = target: Tyrosine-protein kinase BTK (Homo sapiens) (UniProt Q06187); assay: Inhibition of human BTK at 0.1 uM relative to control
[11] = target: Aurora kinase C (Homo sapiens) (UniProt Q9UQB9); assay: Inhibition of human AURKC at 0.1 uM relative to control
[12] = target: Serine/threonine-protein kinase B-raf (Homo sapiens) (UniProt P15056); assay: Inhibition of human BRAF at 0.1 uM relative to control
[13] = target: Serine/threonine-protein kinase Nek1 (Homo sapiens) (UniProt Q96PY6); assay: Inhibition of human NEK1 at 0.1 uM relative to control
[14] = target: Ribosomal protein S6 kinase beta-1 (Homo sapiens) (UniProt P23443); assay: Inhibition of human RPS6KB1 at 0.1 uM relative to control
[15] = target: Hepatocyte growth factor receptor (Homo sapiens) (UniProt P08581); assay: Inhibition of human MET at 0.1 uM relative to control
[16] = target: Fibroblast growth factor receptor 1 (Homo sapiens) (UniProt P11362); assay: Inhibition of human FGFR1 at 0.1 uM relative to control
[17] = target: Serine/threonine-protein kinase PLK1 (Homo sapiens) (UniProt P53350); assay: Inhibition of human PLK1 at 0.1 uM relative to control
[18] = target: Ribosomal protein S6 kinase alpha-2 (Homo sapiens) (UniProt Q15349); assay: Inhibition of human RSK3 at 0.1 uM relative to control
[19] = target: Serine/threonine-protein kinase Sgk2 (Homo sapiens) (UniProt Q9HBY8); assay: Inhibition of human SGK2 at 0.1 uM relative to control
[20] = target: Serine/threonine-protein kinase Chk2 (Homo sapiens) (UniProt O96017); assay: Inhibition of human CHK2 at 0.1 uM relative to control
[21] = target: Serine/threonine-protein kinase mTOR (Homo sapiens) (UniProt P42345); assay: Inhibition of human mTOR at 0.1 uM relative to control
[22] = target: Tyrosine-protein kinase JAK1 (Homo sapiens) (UniProt P23458); assay: Inhibition of human JAK1 at 0.1 uM relative to control
[23] = target: Serine/threonine-protein kinase Sgk3 (Homo sapiens) (UniProt Q96BR1); assay: Inhibition of human SGKL at 0.1 uM relative to control
[24] = target: T1, Receptor-type tyrosine-protein kinase FLT3 (Homo sapiens, UniProt P36888); assay: Inhibition of wild type FLT3 (unknown origin) phosphorylation expressed in HEK293T cells preincubated for 1 hr followed by FLT3 ligand addition for 5 mins by Western blot analysis; type: cell-based, HEK-293T
T1 sequence (P36888 whole entry): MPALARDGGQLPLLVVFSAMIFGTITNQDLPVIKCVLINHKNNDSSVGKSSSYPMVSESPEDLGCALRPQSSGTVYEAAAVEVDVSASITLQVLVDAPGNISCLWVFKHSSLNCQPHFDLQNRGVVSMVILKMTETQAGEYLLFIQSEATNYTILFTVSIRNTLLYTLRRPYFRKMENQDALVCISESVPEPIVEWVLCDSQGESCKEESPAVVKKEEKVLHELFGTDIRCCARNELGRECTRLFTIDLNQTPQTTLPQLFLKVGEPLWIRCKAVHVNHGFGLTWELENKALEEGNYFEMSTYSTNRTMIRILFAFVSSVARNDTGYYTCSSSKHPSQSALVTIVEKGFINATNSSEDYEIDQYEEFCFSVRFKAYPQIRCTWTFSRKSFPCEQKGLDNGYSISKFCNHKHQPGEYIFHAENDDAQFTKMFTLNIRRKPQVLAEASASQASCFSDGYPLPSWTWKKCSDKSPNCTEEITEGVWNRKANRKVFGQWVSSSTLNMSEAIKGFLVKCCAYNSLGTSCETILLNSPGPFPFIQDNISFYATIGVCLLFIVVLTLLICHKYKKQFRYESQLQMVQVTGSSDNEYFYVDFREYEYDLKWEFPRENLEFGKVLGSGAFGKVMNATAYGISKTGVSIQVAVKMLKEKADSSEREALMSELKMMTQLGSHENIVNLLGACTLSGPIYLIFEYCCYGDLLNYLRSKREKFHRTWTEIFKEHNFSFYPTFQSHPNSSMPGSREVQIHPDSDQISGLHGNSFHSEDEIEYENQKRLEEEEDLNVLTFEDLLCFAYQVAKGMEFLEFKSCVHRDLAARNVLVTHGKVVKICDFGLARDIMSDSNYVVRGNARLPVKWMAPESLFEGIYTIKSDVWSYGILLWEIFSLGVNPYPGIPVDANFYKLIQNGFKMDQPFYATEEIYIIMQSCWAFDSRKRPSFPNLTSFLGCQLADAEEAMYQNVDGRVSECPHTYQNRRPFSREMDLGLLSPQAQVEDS

[25] = Plasma clearance in Sprague-Dawley rat at 2 mg/kg, iv; type: ADME, organism-based
[26] = test system: Mus musculus; assay: Antitumor activity against human MOLM13 cells xenografted in SCID mouse assessed as increase in survival at 10 mg/kg, po qd administered on day 1 to 5 relative to vehicle-treated control; type: functional, MOLM-13
[27] = test system: Receptor-type tyrosine-protein kinase FLT3 (Homo sapiens), P36888 [UNDEFINED MUTATION]; details: MOLM-13
Description: Inhibition of FLT3 ITD heterozygous mutant in human MOLM-13 cells assessed as cell growth inhibition after 72 hrs by MTS assay

[28] = target: Bcr/Abl fusion protein (Homo sapiens) (UniProt P00519+P11274); details: K562
Description: Inhibition of wild type BCR/ABL in FLT3 deficient human K562 cells assessed as cell growth inhibition after 72 hrs by MTS assay

[29] = test system: Receptor-type tyrosine-protein kinase FLT3 (Homo sapiens), P36888 [F691L]

Proto-oncogene tyrosine-protein kinase Src (Homo sapiens), sequence (P12931 2-536 limits assumed): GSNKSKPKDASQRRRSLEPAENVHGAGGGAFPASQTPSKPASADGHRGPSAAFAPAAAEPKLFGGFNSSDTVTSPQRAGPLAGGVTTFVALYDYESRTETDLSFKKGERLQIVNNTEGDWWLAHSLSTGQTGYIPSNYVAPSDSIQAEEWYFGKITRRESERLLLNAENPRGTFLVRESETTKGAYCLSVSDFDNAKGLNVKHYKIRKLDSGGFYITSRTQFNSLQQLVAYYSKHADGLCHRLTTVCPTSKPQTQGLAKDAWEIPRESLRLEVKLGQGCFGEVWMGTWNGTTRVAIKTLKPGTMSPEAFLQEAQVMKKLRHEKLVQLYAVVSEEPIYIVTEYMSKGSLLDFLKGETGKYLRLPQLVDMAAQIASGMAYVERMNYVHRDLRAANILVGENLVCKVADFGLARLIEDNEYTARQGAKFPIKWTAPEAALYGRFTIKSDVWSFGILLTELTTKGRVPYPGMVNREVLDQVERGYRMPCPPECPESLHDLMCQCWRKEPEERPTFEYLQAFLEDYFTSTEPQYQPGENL
Tyrosine-protein kinase BTK (Homo sapiens), sequence (Q06187 whole entry): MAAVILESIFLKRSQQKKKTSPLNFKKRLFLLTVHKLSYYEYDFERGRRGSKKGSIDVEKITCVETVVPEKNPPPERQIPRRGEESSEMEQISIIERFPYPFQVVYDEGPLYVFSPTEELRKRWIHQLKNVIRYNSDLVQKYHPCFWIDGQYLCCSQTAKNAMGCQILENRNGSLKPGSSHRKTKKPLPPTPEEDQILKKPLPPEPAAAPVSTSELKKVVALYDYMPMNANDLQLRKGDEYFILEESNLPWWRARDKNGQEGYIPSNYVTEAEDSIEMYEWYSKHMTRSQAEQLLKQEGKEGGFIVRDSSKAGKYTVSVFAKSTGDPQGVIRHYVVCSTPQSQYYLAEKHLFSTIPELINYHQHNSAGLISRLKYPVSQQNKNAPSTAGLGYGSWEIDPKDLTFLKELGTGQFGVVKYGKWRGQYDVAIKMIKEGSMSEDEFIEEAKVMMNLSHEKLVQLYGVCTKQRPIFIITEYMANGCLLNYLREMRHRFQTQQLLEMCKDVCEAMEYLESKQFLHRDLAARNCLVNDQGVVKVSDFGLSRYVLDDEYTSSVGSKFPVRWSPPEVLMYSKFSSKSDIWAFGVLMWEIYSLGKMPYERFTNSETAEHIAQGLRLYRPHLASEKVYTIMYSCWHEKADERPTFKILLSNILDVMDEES
Serine/threonine-protein kinase PLK1 (Homo sapiens), sequence (P53350 whole entry): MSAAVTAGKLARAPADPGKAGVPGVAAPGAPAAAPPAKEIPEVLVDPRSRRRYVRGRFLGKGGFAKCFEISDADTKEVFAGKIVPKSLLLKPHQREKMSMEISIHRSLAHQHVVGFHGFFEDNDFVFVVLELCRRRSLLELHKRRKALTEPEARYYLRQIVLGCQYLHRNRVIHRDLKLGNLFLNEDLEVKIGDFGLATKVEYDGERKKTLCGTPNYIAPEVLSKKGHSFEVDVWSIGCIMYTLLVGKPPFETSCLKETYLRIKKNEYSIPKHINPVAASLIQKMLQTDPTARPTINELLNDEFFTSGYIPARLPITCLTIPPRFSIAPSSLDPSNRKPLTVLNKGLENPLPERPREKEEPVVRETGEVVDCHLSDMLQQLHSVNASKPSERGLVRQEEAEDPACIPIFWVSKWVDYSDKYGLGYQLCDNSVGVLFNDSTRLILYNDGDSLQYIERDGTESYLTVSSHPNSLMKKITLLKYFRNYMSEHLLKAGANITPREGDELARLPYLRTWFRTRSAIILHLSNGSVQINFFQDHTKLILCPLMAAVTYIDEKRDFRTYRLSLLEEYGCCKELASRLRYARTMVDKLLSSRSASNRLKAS
Fibroblast growth factor receptor 1 (Homo sapiens), sequence (P11362 22-822 limits assumed): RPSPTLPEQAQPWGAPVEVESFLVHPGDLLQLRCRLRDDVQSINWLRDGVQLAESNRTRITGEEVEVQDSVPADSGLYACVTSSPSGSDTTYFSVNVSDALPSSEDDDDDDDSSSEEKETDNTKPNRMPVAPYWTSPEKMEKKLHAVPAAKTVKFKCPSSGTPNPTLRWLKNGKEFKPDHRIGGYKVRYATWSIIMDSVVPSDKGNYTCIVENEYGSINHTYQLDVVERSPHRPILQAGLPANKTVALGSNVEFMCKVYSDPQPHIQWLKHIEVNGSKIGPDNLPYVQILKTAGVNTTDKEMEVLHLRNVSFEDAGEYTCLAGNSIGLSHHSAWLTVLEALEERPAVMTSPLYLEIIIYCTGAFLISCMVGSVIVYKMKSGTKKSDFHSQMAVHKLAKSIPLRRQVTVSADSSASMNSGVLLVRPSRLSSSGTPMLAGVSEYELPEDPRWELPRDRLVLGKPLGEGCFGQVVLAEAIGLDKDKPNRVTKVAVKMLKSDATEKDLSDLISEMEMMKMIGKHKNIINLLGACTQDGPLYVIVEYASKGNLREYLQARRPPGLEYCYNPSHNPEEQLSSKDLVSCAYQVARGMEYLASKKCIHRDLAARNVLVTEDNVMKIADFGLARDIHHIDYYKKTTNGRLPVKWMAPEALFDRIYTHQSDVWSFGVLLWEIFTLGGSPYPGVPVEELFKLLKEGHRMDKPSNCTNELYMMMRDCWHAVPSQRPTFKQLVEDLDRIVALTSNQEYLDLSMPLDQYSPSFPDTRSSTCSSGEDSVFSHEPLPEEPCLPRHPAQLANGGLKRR
Platelet-derived growth factor receptor alpha (Homo sapiens), P16234 [T674I], sequence (P16234 whole entry T674I): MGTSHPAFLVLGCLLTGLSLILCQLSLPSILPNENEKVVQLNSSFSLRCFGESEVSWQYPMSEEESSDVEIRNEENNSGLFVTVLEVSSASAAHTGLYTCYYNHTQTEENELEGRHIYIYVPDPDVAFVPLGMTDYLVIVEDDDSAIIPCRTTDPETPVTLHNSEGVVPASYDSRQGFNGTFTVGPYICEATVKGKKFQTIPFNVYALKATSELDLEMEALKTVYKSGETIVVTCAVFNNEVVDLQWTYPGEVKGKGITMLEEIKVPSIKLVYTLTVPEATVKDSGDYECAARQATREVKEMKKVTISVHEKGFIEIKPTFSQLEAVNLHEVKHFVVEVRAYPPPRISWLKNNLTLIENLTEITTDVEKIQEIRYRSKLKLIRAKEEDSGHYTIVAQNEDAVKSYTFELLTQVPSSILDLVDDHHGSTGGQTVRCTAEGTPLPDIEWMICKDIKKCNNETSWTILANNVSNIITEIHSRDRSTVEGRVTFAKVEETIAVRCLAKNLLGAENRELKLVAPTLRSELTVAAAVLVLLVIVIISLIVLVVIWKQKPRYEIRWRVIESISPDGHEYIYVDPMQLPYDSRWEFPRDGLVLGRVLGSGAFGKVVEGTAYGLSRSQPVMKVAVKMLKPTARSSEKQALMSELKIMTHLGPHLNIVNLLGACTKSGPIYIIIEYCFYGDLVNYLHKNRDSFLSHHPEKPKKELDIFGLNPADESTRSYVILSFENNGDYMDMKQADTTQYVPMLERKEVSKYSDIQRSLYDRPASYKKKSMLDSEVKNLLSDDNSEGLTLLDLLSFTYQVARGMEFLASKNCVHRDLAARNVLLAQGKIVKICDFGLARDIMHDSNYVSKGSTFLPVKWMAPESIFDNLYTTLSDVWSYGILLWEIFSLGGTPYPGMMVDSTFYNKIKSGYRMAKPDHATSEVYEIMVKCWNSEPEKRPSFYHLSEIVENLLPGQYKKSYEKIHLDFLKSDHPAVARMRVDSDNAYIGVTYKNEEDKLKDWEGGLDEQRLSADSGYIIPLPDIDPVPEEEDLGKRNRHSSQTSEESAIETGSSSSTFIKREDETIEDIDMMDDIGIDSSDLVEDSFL
Serine/threonine-protein kinase Sgk3 (Homo sapiens), sequence (Q96BR1 whole entry): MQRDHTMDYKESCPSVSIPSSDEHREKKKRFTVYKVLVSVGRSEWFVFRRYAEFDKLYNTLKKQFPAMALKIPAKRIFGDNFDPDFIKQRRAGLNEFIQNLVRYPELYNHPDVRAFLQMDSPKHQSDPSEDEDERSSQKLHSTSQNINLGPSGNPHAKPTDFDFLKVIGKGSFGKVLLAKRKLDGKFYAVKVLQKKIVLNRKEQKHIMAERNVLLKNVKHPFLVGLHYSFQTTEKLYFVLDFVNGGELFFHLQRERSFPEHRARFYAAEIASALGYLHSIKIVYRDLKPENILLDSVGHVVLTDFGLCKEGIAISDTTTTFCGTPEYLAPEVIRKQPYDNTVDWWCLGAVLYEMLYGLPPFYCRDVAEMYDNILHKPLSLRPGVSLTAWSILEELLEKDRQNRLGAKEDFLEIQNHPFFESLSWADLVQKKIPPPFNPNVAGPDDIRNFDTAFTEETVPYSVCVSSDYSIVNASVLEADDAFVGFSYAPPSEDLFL
Aurora kinase C (Homo sapiens), sequence (Q9UQB9 whole entry): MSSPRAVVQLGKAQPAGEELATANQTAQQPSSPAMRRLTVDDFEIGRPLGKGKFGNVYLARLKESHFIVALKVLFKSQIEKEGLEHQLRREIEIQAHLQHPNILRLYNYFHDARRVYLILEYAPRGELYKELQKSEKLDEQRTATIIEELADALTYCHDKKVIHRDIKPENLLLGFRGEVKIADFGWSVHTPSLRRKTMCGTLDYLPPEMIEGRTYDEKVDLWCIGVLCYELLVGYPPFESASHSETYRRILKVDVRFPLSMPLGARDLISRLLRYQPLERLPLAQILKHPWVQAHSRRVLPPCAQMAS
Aurora kinase B (Homo sapiens), sequence (Q96GD4 whole entry): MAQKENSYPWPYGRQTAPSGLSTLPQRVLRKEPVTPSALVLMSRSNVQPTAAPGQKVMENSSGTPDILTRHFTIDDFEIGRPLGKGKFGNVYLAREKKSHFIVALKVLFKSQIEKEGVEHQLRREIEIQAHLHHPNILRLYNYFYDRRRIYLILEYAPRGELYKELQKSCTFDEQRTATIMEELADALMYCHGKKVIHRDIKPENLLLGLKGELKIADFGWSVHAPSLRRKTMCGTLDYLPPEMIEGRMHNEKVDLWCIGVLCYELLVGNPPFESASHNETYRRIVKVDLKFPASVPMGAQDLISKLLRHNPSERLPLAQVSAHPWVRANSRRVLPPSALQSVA
Platelet-derived growth factor receptor alpha (Homo sapiens), P16234 [V561D], sequence (P16234 whole entry V561D): as the sequence (P16234 whole entry T674I) above, with V561D, I674T counted along it

## CCc1cc(NC(=O)Nc2ccc(-c3cnc(Nc4cc(N5CCN(CC)CC5)nc(C)n4)s3)cc2)no1
[1]
  AUC(0-inf): 1.07 µg·h/mL
[2]
  inhibition: 93%
[3]
  inhibition: 89%
[4]
  inhibition: 88%
[5]
  inhibition: 85%
[6]
  inhibition: 80%
[7]
  inhibition: 66%
[8]
  inhibition: 63%
[9]
  inhibition: 46%
[10]
  inhibition: 46%
[11]
  inhibition: 45%
[12]
  inhibition: 36%
[13]
  inhibition: 23%
[14]
  inhibition: 22%
[15]
  inhibition: 14%
[16]
  inhibition: 10%
[17]
  inhibition: 9%
[18]
  inhibition: 7%
[19]
  inhibition: 6%
[20]
  inhibition: -3%
[21]
  inhibition: -7%
[22]
  inhibition: -8%
[23]
  inhibition: -8%
[24]
  IC50: 0.01 µM
[25]
  clearance: 1.9 L/h/kg
[26]
  Activity: 45%
[27]
  GI50: 0.002 µM
[28]
  GI50: 0.19 µM
[29]
  GI50: 0.07 µM

— ChEMBL document CHEMBL3593229, “Identification of a potent 5-phenyl-thiazol-2-ylamine-based inhibitor of FLT3 with activity against drug resistance-conferring point mutations” (Eur J Med Chem, 2015)
